Data reported in ChEMBL document CHEMBL5465560, “Selectivity Literature for EUbOPEN Chemogenomic Library” (2024).

What was measured:
[1] = target: T1, Serine/threonine-protein kinase ULK3 (Homo sapiens) (UniProt Q6PHR2); assay: Selectivity interaction (KinomeScan (DiscoverX)) EUB0000595a ULK3; settings: at 10 µM
T1 sequence (whole entry): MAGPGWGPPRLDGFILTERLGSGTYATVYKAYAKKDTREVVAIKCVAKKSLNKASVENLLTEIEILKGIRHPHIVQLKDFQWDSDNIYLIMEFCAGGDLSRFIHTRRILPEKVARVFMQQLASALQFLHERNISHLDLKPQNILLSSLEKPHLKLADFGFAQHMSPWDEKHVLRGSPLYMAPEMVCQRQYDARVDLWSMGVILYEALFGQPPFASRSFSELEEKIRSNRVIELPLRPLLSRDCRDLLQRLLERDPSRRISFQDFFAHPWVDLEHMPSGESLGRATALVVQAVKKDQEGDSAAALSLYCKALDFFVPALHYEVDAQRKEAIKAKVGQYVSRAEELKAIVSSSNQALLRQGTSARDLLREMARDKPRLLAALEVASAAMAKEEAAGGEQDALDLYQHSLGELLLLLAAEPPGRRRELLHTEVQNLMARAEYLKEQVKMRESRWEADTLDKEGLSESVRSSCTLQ

[2] = target: Serine/threonine-protein kinase PAK 4 (Homo sapiens, UniProt O96013); assay: Selectivity interaction (KinomeScan (DiscoverX)) EUB0000595a PAK4; settings: at 10 µM
[3] = target: Mitogen-activated protein kinase 4 (Homo sapiens) (UniProt P31152); assay: Selectivity interaction (KinomeScan (DiscoverX)) EUB0000045b MAPK4
Mitogen-activated protein kinase 4 (Homo sapiens), sequence (P31152 whole entry): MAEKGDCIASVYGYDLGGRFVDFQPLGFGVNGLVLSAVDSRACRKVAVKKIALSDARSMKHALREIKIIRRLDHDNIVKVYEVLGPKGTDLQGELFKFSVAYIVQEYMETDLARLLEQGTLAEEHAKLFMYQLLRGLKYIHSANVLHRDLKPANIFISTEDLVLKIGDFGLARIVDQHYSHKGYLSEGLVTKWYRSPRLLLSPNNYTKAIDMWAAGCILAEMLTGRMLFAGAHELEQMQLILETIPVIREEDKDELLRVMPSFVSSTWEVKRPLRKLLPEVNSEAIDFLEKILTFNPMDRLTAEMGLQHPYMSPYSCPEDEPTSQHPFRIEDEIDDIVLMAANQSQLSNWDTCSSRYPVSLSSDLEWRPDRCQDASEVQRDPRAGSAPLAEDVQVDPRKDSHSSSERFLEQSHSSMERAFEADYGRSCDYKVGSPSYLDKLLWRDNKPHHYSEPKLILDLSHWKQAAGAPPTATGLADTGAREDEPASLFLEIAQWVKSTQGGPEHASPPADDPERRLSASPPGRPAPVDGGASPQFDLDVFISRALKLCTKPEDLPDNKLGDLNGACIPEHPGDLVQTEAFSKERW

[4] = target: Dual specificity tyrosine-phosphorylation-regulated kinase 1A (Homo sapiens, UniProt Q13627); assay: Selectivity interaction (Kinase panel (Z-LYTE Assay)) EUB0001632a DYRK1A; settings: at 10 µM
[5] = target: Serine/threonine-protein kinase 35 (Homo sapiens) (UniProt Q8TDR2); assay: Selectivity interaction (KinomeScan (DiscoverX)) EUB0000666a STK35; settings: at 10 µM
Serine/threonine-protein kinase 35 (Homo sapiens), sequence (Q8TDR2 whole entry): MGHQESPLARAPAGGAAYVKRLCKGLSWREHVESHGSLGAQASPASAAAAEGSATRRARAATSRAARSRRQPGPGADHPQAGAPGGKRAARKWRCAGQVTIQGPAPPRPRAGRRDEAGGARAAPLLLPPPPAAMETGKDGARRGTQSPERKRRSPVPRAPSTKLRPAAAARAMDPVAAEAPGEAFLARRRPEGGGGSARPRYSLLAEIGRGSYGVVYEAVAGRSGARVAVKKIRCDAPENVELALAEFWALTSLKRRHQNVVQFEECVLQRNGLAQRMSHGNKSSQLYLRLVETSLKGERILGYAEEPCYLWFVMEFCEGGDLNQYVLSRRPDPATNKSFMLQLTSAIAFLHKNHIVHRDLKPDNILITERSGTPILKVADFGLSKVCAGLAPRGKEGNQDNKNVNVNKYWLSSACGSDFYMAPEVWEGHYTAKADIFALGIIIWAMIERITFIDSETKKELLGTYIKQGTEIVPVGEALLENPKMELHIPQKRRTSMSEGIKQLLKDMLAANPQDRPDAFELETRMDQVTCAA

[6] = target: Leucine-rich repeat serine/threonine-protein kinase 2 (Homo sapiens, UniProt Q5S007); settings: at 10 µM
Leucine-rich repeat serine/threonine-protein kinase 2, sequence (Q5S007 whole entry): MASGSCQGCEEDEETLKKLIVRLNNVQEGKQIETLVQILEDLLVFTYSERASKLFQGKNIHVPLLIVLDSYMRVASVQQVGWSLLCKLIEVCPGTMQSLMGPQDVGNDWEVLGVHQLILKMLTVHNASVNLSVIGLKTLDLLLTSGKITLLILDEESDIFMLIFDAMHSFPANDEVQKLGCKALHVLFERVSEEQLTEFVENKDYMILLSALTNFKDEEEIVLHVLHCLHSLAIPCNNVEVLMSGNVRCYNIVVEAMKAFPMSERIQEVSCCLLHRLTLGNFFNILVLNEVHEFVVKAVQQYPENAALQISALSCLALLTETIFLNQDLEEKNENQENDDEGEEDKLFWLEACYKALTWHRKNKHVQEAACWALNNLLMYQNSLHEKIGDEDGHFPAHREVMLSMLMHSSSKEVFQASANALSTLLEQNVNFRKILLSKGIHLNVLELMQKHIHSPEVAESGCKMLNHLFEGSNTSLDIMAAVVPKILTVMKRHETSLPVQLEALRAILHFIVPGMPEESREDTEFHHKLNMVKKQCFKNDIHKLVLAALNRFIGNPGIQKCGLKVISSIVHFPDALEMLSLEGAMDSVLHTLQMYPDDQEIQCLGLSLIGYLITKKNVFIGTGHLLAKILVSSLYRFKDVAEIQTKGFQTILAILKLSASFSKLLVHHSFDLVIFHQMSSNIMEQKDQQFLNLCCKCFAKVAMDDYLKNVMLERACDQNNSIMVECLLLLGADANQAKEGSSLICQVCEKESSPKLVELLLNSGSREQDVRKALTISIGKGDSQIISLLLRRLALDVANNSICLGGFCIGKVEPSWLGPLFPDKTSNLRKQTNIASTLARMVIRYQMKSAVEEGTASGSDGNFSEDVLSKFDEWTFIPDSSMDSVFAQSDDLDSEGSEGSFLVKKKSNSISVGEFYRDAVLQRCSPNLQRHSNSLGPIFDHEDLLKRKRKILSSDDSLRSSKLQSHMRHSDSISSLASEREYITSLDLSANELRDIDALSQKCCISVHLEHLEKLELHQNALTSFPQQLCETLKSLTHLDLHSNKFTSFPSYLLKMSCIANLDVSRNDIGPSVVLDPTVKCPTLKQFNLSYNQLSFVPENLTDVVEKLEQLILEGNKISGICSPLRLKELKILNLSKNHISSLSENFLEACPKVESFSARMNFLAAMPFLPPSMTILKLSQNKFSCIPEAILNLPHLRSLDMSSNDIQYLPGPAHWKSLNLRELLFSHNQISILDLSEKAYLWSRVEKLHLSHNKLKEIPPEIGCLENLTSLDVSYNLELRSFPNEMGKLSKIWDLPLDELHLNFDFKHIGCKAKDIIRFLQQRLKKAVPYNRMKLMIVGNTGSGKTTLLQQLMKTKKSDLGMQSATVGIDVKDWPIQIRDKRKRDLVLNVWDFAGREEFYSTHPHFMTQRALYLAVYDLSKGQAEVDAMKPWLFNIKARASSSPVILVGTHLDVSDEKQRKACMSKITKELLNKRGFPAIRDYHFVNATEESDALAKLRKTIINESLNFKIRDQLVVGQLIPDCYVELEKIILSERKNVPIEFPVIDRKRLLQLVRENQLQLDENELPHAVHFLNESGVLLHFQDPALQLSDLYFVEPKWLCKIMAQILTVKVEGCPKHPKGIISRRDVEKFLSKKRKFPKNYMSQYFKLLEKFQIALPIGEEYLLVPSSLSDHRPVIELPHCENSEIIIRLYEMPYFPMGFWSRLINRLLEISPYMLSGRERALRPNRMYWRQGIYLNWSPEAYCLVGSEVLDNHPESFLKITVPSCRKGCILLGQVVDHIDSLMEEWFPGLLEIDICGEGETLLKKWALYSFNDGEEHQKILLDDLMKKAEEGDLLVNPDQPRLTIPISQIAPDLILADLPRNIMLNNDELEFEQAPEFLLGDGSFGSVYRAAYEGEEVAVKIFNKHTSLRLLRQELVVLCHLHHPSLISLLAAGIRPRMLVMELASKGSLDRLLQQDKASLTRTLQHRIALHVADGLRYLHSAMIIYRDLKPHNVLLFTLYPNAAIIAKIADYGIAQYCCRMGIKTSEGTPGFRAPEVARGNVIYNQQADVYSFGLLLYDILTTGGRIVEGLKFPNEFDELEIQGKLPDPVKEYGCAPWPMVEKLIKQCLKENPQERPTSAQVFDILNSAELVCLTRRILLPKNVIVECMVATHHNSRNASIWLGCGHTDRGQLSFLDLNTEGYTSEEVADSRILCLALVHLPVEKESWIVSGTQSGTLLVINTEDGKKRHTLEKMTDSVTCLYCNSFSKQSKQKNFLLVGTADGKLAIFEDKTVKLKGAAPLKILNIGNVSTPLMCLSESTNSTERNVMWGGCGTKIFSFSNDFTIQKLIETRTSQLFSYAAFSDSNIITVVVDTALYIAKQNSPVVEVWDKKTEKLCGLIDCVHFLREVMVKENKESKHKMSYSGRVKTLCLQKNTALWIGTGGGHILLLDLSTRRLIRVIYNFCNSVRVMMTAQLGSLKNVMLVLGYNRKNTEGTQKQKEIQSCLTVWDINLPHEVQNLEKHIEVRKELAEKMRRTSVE

[7] = target: Serine/threonine-protein kinase SIK1 (Homo sapiens) (UniProt P57059); assay: Selectivity interaction (Upstate Kinase Profiler service (Millipore)) EUB0000056c SIK1; settings: at 1 µM
[8] = target: Tyrosine-protein kinase ITK/TSK (Homo sapiens, UniProt Q08881); assay: Selectivity interaction (Enyzmatic assay) EUB0000601a ITK
Tyrosine-protein kinase ITK/TSK, sequence (Q08881 whole entry): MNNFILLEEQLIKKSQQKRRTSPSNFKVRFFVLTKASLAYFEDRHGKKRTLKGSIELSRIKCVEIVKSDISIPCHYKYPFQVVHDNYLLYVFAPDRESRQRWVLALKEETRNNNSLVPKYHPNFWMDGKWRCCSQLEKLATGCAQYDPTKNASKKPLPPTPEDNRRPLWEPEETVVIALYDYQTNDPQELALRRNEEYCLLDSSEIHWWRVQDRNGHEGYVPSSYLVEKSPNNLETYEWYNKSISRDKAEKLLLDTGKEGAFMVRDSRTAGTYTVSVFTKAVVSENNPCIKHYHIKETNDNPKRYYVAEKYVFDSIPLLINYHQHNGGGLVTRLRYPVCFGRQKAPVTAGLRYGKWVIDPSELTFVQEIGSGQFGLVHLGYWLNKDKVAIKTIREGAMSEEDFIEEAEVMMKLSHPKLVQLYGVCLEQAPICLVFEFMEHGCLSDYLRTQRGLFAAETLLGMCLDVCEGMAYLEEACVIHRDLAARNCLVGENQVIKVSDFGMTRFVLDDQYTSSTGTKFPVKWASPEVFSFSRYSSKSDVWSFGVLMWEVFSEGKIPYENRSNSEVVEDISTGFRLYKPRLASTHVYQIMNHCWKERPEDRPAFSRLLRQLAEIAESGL

[9] = target: T2, Mitogen-activated protein kinase kinase kinase 15 (Homo sapiens) (UniProt Q6ZN16); assay: Selectivity interaction (ActivX KiNativ screen (kinase selectivity in THP-1 cell lysates)) EUB0000639a MAP3K15; assay type: subcellular; settings: lysate
T2 sequence (whole entry): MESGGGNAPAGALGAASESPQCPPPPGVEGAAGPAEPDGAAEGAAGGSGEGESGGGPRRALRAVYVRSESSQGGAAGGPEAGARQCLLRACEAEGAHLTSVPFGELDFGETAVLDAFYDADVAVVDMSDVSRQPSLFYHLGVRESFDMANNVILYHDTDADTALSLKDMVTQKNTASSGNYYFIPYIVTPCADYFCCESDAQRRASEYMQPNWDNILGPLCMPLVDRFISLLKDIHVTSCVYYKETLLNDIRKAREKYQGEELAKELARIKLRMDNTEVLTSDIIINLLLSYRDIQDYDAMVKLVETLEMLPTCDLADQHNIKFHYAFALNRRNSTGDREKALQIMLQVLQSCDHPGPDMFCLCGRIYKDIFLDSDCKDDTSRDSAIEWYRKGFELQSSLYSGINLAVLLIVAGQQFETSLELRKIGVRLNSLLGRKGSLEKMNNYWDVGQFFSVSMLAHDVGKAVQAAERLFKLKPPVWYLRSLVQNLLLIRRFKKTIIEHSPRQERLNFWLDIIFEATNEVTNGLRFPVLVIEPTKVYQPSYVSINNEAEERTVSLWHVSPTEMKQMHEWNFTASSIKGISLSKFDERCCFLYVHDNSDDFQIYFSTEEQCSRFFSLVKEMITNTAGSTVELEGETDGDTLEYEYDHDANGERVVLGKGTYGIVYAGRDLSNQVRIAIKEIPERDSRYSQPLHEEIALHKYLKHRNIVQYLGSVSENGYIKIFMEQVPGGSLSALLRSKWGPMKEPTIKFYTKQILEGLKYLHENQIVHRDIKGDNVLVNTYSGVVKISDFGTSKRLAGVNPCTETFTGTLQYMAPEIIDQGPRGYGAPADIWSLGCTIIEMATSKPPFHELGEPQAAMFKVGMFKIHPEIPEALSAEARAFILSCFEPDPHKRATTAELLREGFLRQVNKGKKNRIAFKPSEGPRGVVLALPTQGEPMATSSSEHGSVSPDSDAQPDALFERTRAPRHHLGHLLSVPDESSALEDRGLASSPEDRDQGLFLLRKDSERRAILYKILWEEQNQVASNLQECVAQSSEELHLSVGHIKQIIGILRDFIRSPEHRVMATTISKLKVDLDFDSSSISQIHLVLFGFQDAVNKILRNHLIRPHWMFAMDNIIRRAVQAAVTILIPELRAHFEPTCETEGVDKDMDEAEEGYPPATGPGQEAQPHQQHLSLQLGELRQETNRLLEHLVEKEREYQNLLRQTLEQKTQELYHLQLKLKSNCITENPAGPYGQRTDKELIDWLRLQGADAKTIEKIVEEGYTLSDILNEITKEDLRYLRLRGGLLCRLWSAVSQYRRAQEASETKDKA

[10] = target: Dual specificity mitogen-activated protein kinase kinase 1 (Homo sapiens, UniProt Q02750); assay: Selectivity interaction (ActivX KiNativ screen (kinase selectivity in THP-1 cell lysates)) EUB0000639a MAP2K1; assay type: subcellular; settings: lysate
Dual specificity mitogen-activated protein kinase kinase 1, sequence (Q02750 whole entry): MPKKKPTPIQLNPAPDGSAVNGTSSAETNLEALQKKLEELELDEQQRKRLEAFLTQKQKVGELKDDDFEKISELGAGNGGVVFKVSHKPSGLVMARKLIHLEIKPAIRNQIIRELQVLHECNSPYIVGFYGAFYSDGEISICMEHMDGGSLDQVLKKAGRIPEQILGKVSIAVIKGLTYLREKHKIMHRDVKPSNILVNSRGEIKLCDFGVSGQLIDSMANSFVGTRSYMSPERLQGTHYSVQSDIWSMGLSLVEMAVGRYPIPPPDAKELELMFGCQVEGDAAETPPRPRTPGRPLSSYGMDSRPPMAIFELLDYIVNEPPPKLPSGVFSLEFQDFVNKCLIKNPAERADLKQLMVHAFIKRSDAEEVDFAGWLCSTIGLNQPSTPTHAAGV

COCC(=O)NC/C=C/c1ccc2ncnc(Nc3ccc(Oc4ccc(C)nc4)c(C)c3)c2c1 [CP-724714]
% of control [1]: 68%
% of control [2]: 87%

C=CC(=O)Nc1cc(-n2c(=O)ccc3cnc4ccc(-c5ccc(NS(C)(=O)=O)cc5)cc4c32)ccc1C
% of control ([3]; at 1 µM): 91%
% of control ([3]; at 10 µM): 100%

Cn1cc(-n2cnc3c(NCc4nc5cc(Cl)c(Cl)cc5[nH]4)nc(N4CCOCC4)nc32)cn1
% of control [4]: -3.48%

O=C(NOC[C@H](O)CO)c1ccc(F)c(F)c1Nc1ccc(I)cc1F
% of control [5]: 83%

Cc1cc([C@@H](C)Nc2ccccc2C(=O)O)c2nc(N3CCOCC3)cc(=O)n2c1 [AZD-6482]
% of control [6]: 100%

Cc1ccc(-c2ccc3c(ccc4sc5c(c43)NC[C@@H](C)NC5=O)n2)cn1
% of inhibition [7]: 4%

CCc1cc(Nc2nccc(-c3c(-c4ccc(OC)c(C(=O)Nc5c(F)cccc5F)c4)nc4ccccn34)n2)c(OC)cc1N1CCC(N2CCN(S(C)(=O)=O)CC2)CC1
IC50 [8]: > 25 µM

CC[C@@H]1[C@H](F)C(=O)N[C@@H]1COc1nccc2cc(C(N)=O)c(OC)cc12 [ZIMLOVISERTIB]
% of inhibition ([9]; at 0.01 µM): -12.1%
% of inhibition ([9]; at 0.04 µM): -3.2%
% of inhibition ([9]; at 0.2 µM): 0%
% of inhibition ([9]; at 1 µM): -6.5%
% of inhibition ([9]; at 5 µM): -21.9%
% of inhibition ([10]; at 0.01 µM): -25.6%
% of inhibition ([10]; at 0.04 µM): -4.8%
% of inhibition ([10]; at 0.2 µM): -3.6%
% of inhibition ([10]; at 1 µM): 3.1%
% of inhibition ([10]; at 5 µM): 18.5%
